These results are taken from ChEMBL document CHEMBL1201862, “PubChem BioAssay data set” (2004).

Test systems include A498; BT-549; EKVX; HCT-15; HOP-62; HOP-92; K562; MCF7; MDA-MB-435; MDA-N; MOLT-4; NCI-H226; RXF 393; SF-268; SK-MEL-28; SK-MEL-5; SN12C; UACC-62; UO-31.
Common to all, as to assay: NCI tumour cell line growth inhibition, 48 h

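Cells were grown in 96-well plates and exposed to each compound for 48 hours at five concentrations; endpoints were interpolated linearly between bracketing concentrations, or set to the highest concentration if not reached. Here, GI50 denotes the concentration required for 50% inhibition of growth.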 Calls of active or inactive are those of the source. Rule as the data show it: active = GI50 up to about 1.1 µM and inactive = higher.

In the case of `O=C(O)c1ccccc1/N=N/c1c(O)c(S(=O)(=O)O)cc2cc(S(=O)(=O)O)ccc12`, the GI50 is > 100 µM (inactive) with A498; > 100 µM (inactive) with BT-549; > 100 µM (inactive) in the assay with EKVX; over 100 µM in the assay on HCT-15; > 100 µM (inactive) in the assay with HOP-62; > 100 µM (inactive) in the assay with HOP-92. The GI50 in the assay with K562, with MCF7, in the assay on MDA-MB-435, in the assay on MDA-N, with MOLT-4 and with NCI-H226 was > 100 µM (inactive) throughout. In addition, the GI50 in the assay with RXF 393, with SF-268, in the assay on SK-MEL-28, with SK-MEL-5, in the assay with SN12C and in the assay on UACC-62 was > 100 µM (inactive) throughout. In the assay on UO-31, the GI50 is > 100 µM (inactive).

For `CC(CCN)(CCN)[N+](=O)[O-]`, the GI50 in the assay with A498 was > 100 µM (inactive); in the assay on BT-549, > 100 µM (inactive); with EKVX it was > 100 µM (inactive); in the assay on HCT-15 it was over 100 µM; in the assay with HOP-62, > 100 µM (inactive); in the assay with HOP-92, > 100 µM (inactive). Also, the GI50 in the assay with K562, in the assay on MCF7, in the assay on MDA-MB-435, in the assay on MDA-N, with MOLT-4 and with NCI-H226 was > 100 µM (inactive) throughout. Moreover, the GI50 is > 100 µM (inactive) in the assay with RXF 393; > 100 µM (inactive) with SF-268; > 100 µM (inactive) in the assay on SK-MEL-28; > 100 µM (inactive) in the assay on SK-MEL-5; 77.3 µM (inactive) in the assay on SN12C; > 100 µM (inactive) in the assay on UACC-62. Further, in the assay on UO-31, the GI50 was > 100 µM (inactive).

Consider `O=C(c1ccco1)N(C(=S)OC12CC3CC(CC(C3)C1)C2)c1ccccc1`, for which the GI50 was 23.3 µM (inactive) in the assay on A498; 34.5 µM (inactive) with BT-549; 18.8 µM (inactive) in the assay on EKVX; 28.2 µM with HCT-15; 28.2 µM (inactive) in the assay with HOP-62; 19.5 µM (inactive) in the assay on HOP-92. Besides, the GI50 in the assay on K562 is 28.6 µM (inactive); in the assay on MCF7 it was 26.2 µM (inactive); in the assay with MDA-MB-435, 28.9 µM (inactive); in the assay on MDA-N, 29.4 µM (inactive); in the assay with MOLT-4 it was 24.4 µM (inactive); with NCI-H226 it was 27.2 µM (inactive). Besides, the GI50 in the assay on RXF 393 was 13.7 µM (inactive); with SF-268 it was 32.9 µM (inactive); in the assay with SK-MEL-28 it was 37.9 µM (inactive); in the assay on SK-MEL-5, 17.7 µM (inactive); in the assay with SN12C, 27.9 µM (inactive); with UACC-62 it was 23.4 µM (inactive). The GI50 in the assay on UO-31 was 24.9 µM (inactive).

Consider `CCCCN(CCCC)C1(c2cc3ccccc3s2)CCCCC1.[O-][Cl+3]([O-])([O-])O`, for which the GI50 is 19.3 µM (inactive) in the assay on A498; 19.9 µM (inactive) in the assay with BT-549; 21.1 µM (inactive) with EKVX; 15.5 µM in the assay on HCT-15; 15.1 µM (inactive) in the assay on HOP-62; 12.5 µM (inactive) with HOP-92. Moreover, the GI50 with K562 is 16.7 µM (inactive); in the assay on MCF7 it was 17.3 µM (inactive); in the assay on MDA-MB-435 it was 13.3 µM (inactive); with MDA-N, 15.4 µM (inactive); with MOLT-4, 13.6 µM (inactive); in the assay on NCI-H226, 17.6 µM (inactive). Also, the GI50 in the assay with RXF 393 was 16.6 µM (inactive); in the assay with SF-268, 19.2 µM (inactive); in the assay on SK-MEL-28, 18.4 µM (inactive); in the assay on SK-MEL-5, 18.7 µM (inactive); in the assay with SN12C, 21.4 µM (inactive); in the assay on UACC-62, 15.6 µM (inactive). Moreover, in the assay with UO-31, the GI50 was 18.6 µM (inactive).

With `COc1c(OC)c(OC)c2c(=O)c(OC)c(-c3ccc4c(c3)OCO4)oc2c1OC`, the GI50 was 66.2 µM (inactive) in the assay on A498; > 100 µM (inactive) with BT-549; 82.8 µM (inactive) in the assay on EKVX; 78.5 µM with HCT-15; > 100 µM (inactive) in the assay with HOP-62; 1.48 µM (inactive) in the assay with HOP-92. For the same compound, the GI50 with K562 was 64.7 µM (inactive); with MCF7 it was > 100 µM (inactive); in the assay with MDA-MB-435, 82.4 µM (inactive); in the assay with MDA-N it was > 100 µM (inactive); in the assay on MOLT-4 it was 39.7 µM (inactive); with NCI-H226, > 100 µM (inactive). For the same compound, the GI50 with RXF 393 is > 100 µM (inactive); with SF-268, > 100 µM (inactive); in the assay with SK-MEL-28, > 100 µM (inactive); in the assay on SK-MEL-5, 44.8 µM (inactive); with SN12C, > 100 µM (inactive); in the assay on UACC-62 it was > 100 µM (inactive). Besides, in the assay on UO-31, the GI50 was 57.8 µM (inactive).

In the case of `CCOC(=O)c1nc2ccc(C(F)(F)F)cc2nc1Nc1ccc(OC)c(OC)c1`, the GI50 is > 100 µM (inactive) in the assay on A498; 97.9 µM (inactive) with BT-549; > 100 µM (inactive) in the assay with EKVX; over 100 µM in the assay on HCT-15; 12 µM (inactive) in the assay with HOP-62; 65.2 µM (inactive) in the assay on HOP-92. Also, the GI50 with K562, in the assay on MCF7, with MDA-MB-435, in the assay with MDA-N, in the assay on MOLT-4 and in the assay with NCI-H226 was > 100 µM (inactive) throughout. In addition, the GI50 with RXF 393 was > 100 µM (inactive); in the assay on SF-268, 78.2 µM (inactive); in the assay on SK-MEL-28 it was > 100 µM (inactive); in the assay with SK-MEL-5 it was > 100 µM (inactive); in the assay on SN12C, > 100 µM (inactive); in the assay with UACC-62, > 100 µM (inactive). Moreover, in the assay with UO-31, the GI50 is > 100 µM (inactive).

Turning to `CC1(C)CC[C@]2(C)[C@@H](O)C[C@]3(C)C(=CC[C@@H]4[C@@]5(C)CC[C@H](O)C(C)(C)[C@@H]5CC[C@]43C)[C@@H]2C1`, the GI50 is 34.3 µM (inactive) with A498; 93.1 µM (inactive) with BT-549; 38.8 µM (inactive) in the assay with EKVX; 81.1 µM in the assay with HCT-15; 37 µM (inactive) with HOP-62; 16.2 µM (inactive) with HOP-92. The GI50 with K562 was > 100 µM (inactive); with MCF7, 37.9 µM (inactive); with MDA-MB-435 it was > 100 µM (inactive); with MDA-N, > 100 µM (inactive); in the assay on MOLT-4, > 100 µM (inactive); with NCI-H226 it was 35 µM (inactive). In addition, the GI50 is 7.24 µM (inactive) with RXF 393; 46.3 µM (inactive) with SF-268; > 100 µM (inactive) in the assay on SK-MEL-28; 35.3 µM (inactive) with SK-MEL-5; 56.9 µM (inactive) with SN12C; 58.7 µM (inactive) with UACC-62. For the same compound, in the assay with UO-31, the GI50 is 20.4 µM (inactive).

`NCC(O)CNC(=O)c1ccc(-c2ccc(-c3ccc(C(=O)NCC(O)CN)cc3)o2)cc1` (centres undefined): the GI50 in the assay on A498 is 25 µM (inactive); in the assay on BT-549, 32.7 µM (inactive); in the assay with EKVX it was 27.7 µM (inactive); with HCT-15 it was 57.8 µM; with HOP-62 it was 25.3 µM (inactive); with HOP-92, 22.2 µM (inactive). For the same compound, the GI50 with K562 was > 100 µM (inactive); with MCF7, 32.8 µM (inactive); with MDA-MB-435, > 100 µM (inactive); in the assay on MDA-N it was > 100 µM (inactive); in the assay with MOLT-4, > 100 µM (inactive); in the assay on NCI-H226, 22.6 µM (inactive). In addition, the GI50 was 18.9 µM (inactive) in the assay with RXF 393; 28.2 µM (inactive) with SF-268; > 100 µM (inactive) in the assay with SK-MEL-28; 33.3 µM (inactive) in the assay on SK-MEL-5; 25.1 µM (inactive) with SN12C; 41.8 µM (inactive) in the assay on UACC-62. Besides, the GI50 in the assay with UO-31 is 49.2 µM (inactive).

For `CC(C)C(Br)CC/C(CBr)=C(\Cl)CCl` (centres undefined), the GI50 in the assay on A498 is 18.6 µM (inactive); in the assay with BT-549 it was 1.78 µM (inactive); in the assay on EKVX it was 17.9 µM (inactive); in the assay with HCT-15 it was 2.11 µM; in the assay on HOP-62 it was 16.3 µM (inactive); in the assay with HOP-92, 2.06 µM (inactive). The GI50 was 0.682 µM (active) in the assay with K562; 6.15 µM (inactive) in the assay with MCF7; 2.35 µM (inactive) in the assay on MDA-MB-435; 1.85 µM (inactive) in the assay with MDA-N; 0.589 µM (active) in the assay with MOLT-4; 2.75 µM (inactive) in the assay on NCI-H226. Further, the GI50 in the assay with RXF 393 was 1.81 µM (inactive); in the assay with SF-268, 4.37 µM (inactive); in the assay with SK-MEL-28 it was 2.83 µM (inactive); in the assay on SK-MEL-5 it was 1.79 µM (inactive); in the assay on SN12C, 2.99 µM (inactive); in the assay on UACC-62, 2.49 µM (inactive). For the same compound, the GI50 in the assay on UO-31 was 6.71 µM (inactive).

In the case of `CC(=O)O[C@H]1C(=O)[C@@]2(C)[C@H]([C@H](OC(=O)c3ccccc3)[C@]3(O)C[C@H](OC(=O)[C@H](O)[C@@H](NC(=O)c4ccc(N(C)C)cc4)c4ccccc4)C(C)=C1C3(C)C)[C@]1(OC(C)=O)CO[C@@H]1C[C@@H]2O`, the GI50 was 0.0428 µM (active) with A498; 0.0188 µM (active) in the assay with BT-549; 0.112 µM (active) with EKVX; 0.337 µM with HCT-15; 0.0136 µM (active) in the assay with HOP-62; > 28.8 µM (inactive) with HOP-92. Besides, the GI50 in the assay with K562 is < 0.005 µM (active); with MCF7 it was < 0.005 µM (active); in the assay with MDA-MB-435, < 0.005 µM (active); in the assay on MDA-N, < 0.005 µM (active); with MOLT-4, 0.00631 µM (active); with NCI-H226, 0.008 µM (active). The GI50 in the assay on RXF 393 was 0.00887 µM (active); in the assay on SK-MEL-28, > 50 µM (inactive); in the assay on SK-MEL-5, < 0.005 µM (active); in the assay with SN12C, < 0.005 µM (active); with UACC-62, < 0.005 µM (active); in the assay with UO-31, 1.54 µM (inactive).
